# Results: patent US20070135499A1 (Aerie Pharmaceuticals, Inc., priority 2005, published 2007)
# Target: T1, hGRK-2 (Homo sapiens, UniProt P25098)
# T1 sequence (P25098 1-689): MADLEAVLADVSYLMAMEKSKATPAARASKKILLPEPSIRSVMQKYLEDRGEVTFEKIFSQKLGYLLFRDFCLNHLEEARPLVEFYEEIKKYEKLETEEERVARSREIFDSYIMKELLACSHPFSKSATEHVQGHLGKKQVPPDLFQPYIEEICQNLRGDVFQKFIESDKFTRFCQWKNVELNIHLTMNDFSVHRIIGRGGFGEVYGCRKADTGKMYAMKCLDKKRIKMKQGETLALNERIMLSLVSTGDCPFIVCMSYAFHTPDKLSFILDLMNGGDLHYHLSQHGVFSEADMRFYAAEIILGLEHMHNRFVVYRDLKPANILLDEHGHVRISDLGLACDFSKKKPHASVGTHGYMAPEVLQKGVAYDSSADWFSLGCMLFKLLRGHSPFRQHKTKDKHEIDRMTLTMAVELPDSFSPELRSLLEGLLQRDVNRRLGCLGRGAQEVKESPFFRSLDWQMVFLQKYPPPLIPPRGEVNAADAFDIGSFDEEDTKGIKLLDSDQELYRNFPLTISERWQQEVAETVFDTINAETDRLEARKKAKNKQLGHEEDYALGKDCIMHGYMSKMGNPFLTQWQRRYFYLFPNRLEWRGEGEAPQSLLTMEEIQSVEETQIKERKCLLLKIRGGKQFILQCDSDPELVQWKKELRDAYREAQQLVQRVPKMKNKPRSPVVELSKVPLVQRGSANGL
# Experiment: luciferase-based (Kinase-Glo) biochemical kinase inhibition assay, hGRK-2
# Settings: luciferase assay, casein substrate, 10 μM ATP; read-out: GRK-2 inhibition, Ki class
# Procedure: The inhibition of G-protein-coupled receptor kinases including hGRK-2 was determined for the hydrazide compounds using a biochemical assay. The inhibition of GRK-3, GRK-5 and GRK-6 was also determined using the same assay for some of the hydrazide derivatives.
# The protein kinase inhibition was determined using a biochemical assay utilizing the light emission of a luciferase reaction. The luciferase-based assay operates on the following reaction principles: [drawing 10]
# An inhibitor of GRK-2 will increase in the amount of ATP in solution, as shown. Thus, an inhibitor of GRK-2 will drive the luciferase reaction to the right, resulting in more light emitted. The amount of light emitted is proportional to the inhibition resulting from the GRK-2 inhibitor. The luciferase-based assay was also used to test some of the hydrazides for the inhibition properties towards other kinases.
# The test procedure was as follows:
# • 50 mM HEPES, pH 7.5 • 10 mM MgCl2 • 100 μM activated sodium orthovanadate • 0.01% CHAPS • 0.1% BSA • 1 mM DTT (added fresh daily) 10× Assay Buffer Stock: • 500 mM HEPES, pH 7.5 • 100 mM MgCl2 • 1 mM activated sodium orthovanadate • 0.1% CHAPS • 1% BSA (leave out for 10× compound dilution buffer) Final Assay Conditions: • 50 μM test compound • 20 μM casein • 10 μM ATP • 50 nM hGRK2 • 4.5% DMSO • 90-120 minute incubation
# Stopped by addition of 30 μl 3×-diluted Kinase-Glo reagent containing 0.01% trypan blue. Counted on FUSION plate reader.
# Compound Dilution and Transfer
# Prepare sufficient buffer containing 40% DMSO to add 20 μl/well to the number of plates being assayed. This buffer should not contain BSA because it will precipitate with addition of 40% DMSO. (EXAMPLE: To make 3000 ml compound dilution buffer: 1200 ml DMSO, 180 ml 10× compound dilution buffer, 1615 ml ultrapure water, 3 ml 1M DTT.).
# Using Multidrop, add 20 μl of compound dilution buffer to all wells of the 384-well daughter plate (add 1 μl DMSO to control wells). This will result in a daughter plate which contains 21 μl of ˜500 μM test compound.
# Using the PlateTrak, transfer 5 μl of the test compounds to a 384-well, non-binding, white microtiter plate.
# Prepare sufficient volume of buffer (with BSA and 1 mM DTT) containing 125 nM GRK2 and 25 μM ATP. (Example: To 219 ml of buffer was added 550 μl 10 mM ATP and 350 μl 79 μM GRK2).
# Using Multidrop, add 20 μl of GRK2/ATP mixture to all wells of the microtiter plate.
# Prepare sufficient volume of buffer (with BSA and 1 mM DTT) containing 40 μM casein. (EXAMPLE: To 211 ml buffer add 8.8 ml 1 mM casein)
# Using Multidrop, add 25 μl to columns 1 through 23 of the microtiter plate. Add 25 μl of complete buffer to column 24 (blanks).
# Mix reaction gently by tapping (Multidrop addition of casein does a decent job of mixing), stack plates and incubate at room temperature for between 90 and 120 minutes. Assay progression can be tracked in a separate plate if desired. Target 20-30% ATP consumption. Try to avoid exceeding 40% consumption as kinetics might become non-linear due to substrate (ATP) depletion.
# Addition of Kinase-Glo Reagents
# The Kinase-Glo reagent can be diluted 3-fold with no loss of data quality in this assay. Additionally, since the library contains many colored compounds which will quench the light emitted from the well resulting in a false negative (kinase inhibitors result in less ATP consumption thus more light emitted), the entire reaction is subject to intentional quench to override this effect. This intentional quench is accomplished by the addition of 0.01% trypan blue to the Kinase-Glo reagents. (EXAMPLE: 100 ml 1× Kinase-Glo reagents (prepared according to product insert), 200 ml assay buffer, 7.5 ml 0.4% trypan blue.
# Using Multidrop, add 30 μl to all wells of the assay plate.
# Count on FUSION plate reader in luminescence mode.
row,Compound,Ki [µM]
1,"O=C(CNc1ccc(C(F)(F)F)cc1)N/N=C/c1ccncc1 [Example 54, (4-Trifluoromethyl-phenylamino)-acetic acid [1-pyridin-4-yl-meth-(E)-ylidene]-hydrazide]",> 10
2,"CC(C)c1cccc(NCC(=O)N/N=C/c2c(Cl)cncc2Cl)c1 [Example 16, (3-Isopropyl-phenylamino)-acetic acid [1-(3,5-dichloro-pyridin-4-yl)-meth-(E)-ylidene]-hydrazide]",> 10
3,"O=C(CNc1ccc(I)cc1)N/N=C/c1ccncc1 [Example 71, (4-Iodo-phenylamino)-acetic acid [1-pyridin-4-yl-meth-(E)-ylidene]-hydrazide]",> 10
4,"O=C(CNc1cccc(Cl)c1)N/N=C/c1ccnc2ccccc12 [Example 91, (3-Chloro-phenylamino)-acetic acid [1-quinolin-4-yl-meth-(E)-ylidene]-hydrazide]",> 10
5,"O=C(CNc1cccc(C(F)(F)F)c1)N/N=C/c1c(Cl)cncc1Cl [Example 12, (3-Trifluoromethyl-phenylamino)-acetic acid [1-(3,5-dichloro-pyridin-4-yl)-meth-(E)-ylidene]-hydrazide]",> 10
6,"Cc1ccccc1NCC(=O)N/N=C/c1ccncc1 [Example 65, o-Tolylamino-acetic acid [1-pyridin-4-yl-meth-(E)-ylidene]-hydrazide]",> 10
7,"CC(Nc1cccc(Oc2ccccc2)c1)C(=O)N/N=C/c1c(Cl)cncc1Cl (centres unmarked) [Example 98, 2-(3-Phenoxy-phenylamino)-propionic acid [1-(3,5-dichloro-pyridin-4-yl)-meth-(E)-ylidene]-hydrazide]",> 10
8,"O=C(CNc1cccc(Cl)c1)N/N=C/c1ccsc1 [Example 93, (3-Chloro-phenylamino)-acetic acid [1-thiophen-3-yl-meth-(E)-ylidene]-hydrazide]",> 10
9,"O=C(CNc1cccc(-n2cncn2)c1)N/N=C/c1c(Cl)cncc1Cl [Example 31, (3-[1,2,4]Triazol-1-yl-phenylamino)-acetic acid [1-(3,5-dichloro-pyridin-4-yl)-meth-(E)-ylidene]-hydrazide]",> 10
10,O=C(CNc1cccc(-n2cccn2)c1)N/N=C/c1c(Cl)cncc1Cl [Example 34],> 10
11,"O=C(CNc1cccc(C(F)(F)F)c1)N/N=C/c1ccncc1 [Example 50, (3-Trifluoromethyl-phenylamino)-acetic acid [1-pyridin-4-yl-meth-(E)-ylidene]-hydrazide]",1 to 10

# Continued, values first:
row,Ki [µM],Compound
1,1 to 10,"O=C(CNc1ccccc1Cc1ccccc1)N/N=C/c1ccncc1 [Example 70, (2-Benzyl-phenylamino)-acetic acid [1-pyridin-4-yl-meth-(E)-ylidene]-hydrazide]"
2,1 to 10,"O=C(CNc1ccc(Cl)cc1)N/N=C/c1ccncc1 [Example 57, (4-Chloro-phenylamino)-acetic acid [1-pyridin-4-yl-meth-(E)-ylidene]-hydrazide]"
3,0.1 to 1,"O=C(CNc1cccc(C(=O)Nc2cccnc2)c1)N/N=C/c1ccncc1 [Example 80, N-Pyridin-3-yl-3-{[1-pyridin-4-yl-meth-(E)-ylidene-hydrazinocarbonylmethyl]-amino}-benzamide]"
4,1 to 10,"O=C(CNc1cccc([N+](=O)[O-])c1)N/N=C/c1c(Cl)cncc1Cl [Example 7, (3-Nitro-phenylamino)-acetic acid [1-(3,5-dichloro-pyridin-4-yl)-meth-(E)-ylidene]-hydrazide]"
5,1 to 10,"N#Cc1cccc(NCC(=O)N/N=C/c2ccncc2)c1 [Example 39, (3-Cyano-phenylamino)-acetic acid [1-pyridin-4-yl-meth-(E)-ylidene]-hydrazide]"
6,1 to 10,"CC(C)Oc1cccc(NCC(=O)N/N=C/c2ccncc2)c1 [Example 58, (3-Isopropoxy-phenylamino)-acetic acid [1-pyridin-4-yl-meth-(E)-ylidene]-hydrazide]"
7,0.01 to 0.1,COc1ccc(Oc2cccc(NCC(=O)NN=Cc3ccncc3)c2)cc1 (mixture of isomers) [Example 81]
8,1 to 10,"Cc1cccc(NCC(=O)N/N=C/c2c(Cl)cncc2Cl)c1 [Example 8, m-Tolylamino-acetic acid [1-(3,5-dichloro-pyridin-4-yl)-meth-(E)-ylidene]-hydrazide]"
9,1 to 10,"O=C(CNc1ccc(Cl)cc1)N/N=C/c1c(Cl)cncc1Cl [Example 18, (4-Chloro-phenylamino)-acetic acid [1-(3,5-dichloro-pyridin-4-yl)-meth-(E)-ylidene]-hydrazide]"
10,1 to 10,"O=C(CNc1cccc(Br)c1)N/N=C/c1c(Cl)cncc1Cl [Example 6, (3-Bromo-phenylamino)-acetic acid [1-(3,5-dichloro-pyridin-4-yl)-meth-(E)-ylidene]-hydrazide]"
11,0.1 to 1,"O=C(CNc1cccc(Oc2ccc(OC(F)(F)F)cc2)c1)NN=Cc1ccncc1 (mixture of isomers) [Example 77, [3-(4-Trifluoromethoxy-phenoxy)-phenylamino]-acetic acid [1-pyridin-4-yl-meth-(E/Z)-ylidene]-hydrazide]"
12,1 to 10,CS(=O)(=O)Nc1cccc(NCC(=O)N/N=C/c2c(Cl)cncc2Cl)c1 [Example 24]
